Results from patent US9539260B2, “Dihydro-benzo-oxazine and dihydro-pyrido-oxazine derivatives” (Novartis AG, priority 2012, dated 2017).

How the values were obtained:
PI3K alpha = PI3K alpha (Homo sapiens (Human), UniProt P42336); assay: Enzymatic PI3K alpha isoform inhibition (lipid kinase activity, Kinase-Glo luminescence); type: biochemical; conditions: Enzymatic assay
Method in brief: (§1)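 ATP-depletion format: 10 nM PI3K with 5 μg/mL phosphatidylinositol and 2 μM ATP, run to ~50% ATP consumption, then Kinase-Glo added and remaining ATP read by luminescence after 5 min. IC50 from 4-parameter logistic fit, typically over 8 concentrations 10–0.003 μM.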

PI3K delta = PI3K delta (Homo sapiens (Human), UniProt O00329); assay: Enzymatic PI3K delta isoform inhibition (lipid kinase activity, Kinase-Glo luminescence); type: biochemical; conditions: Enzymatic assay
Method in brief: as §1

Sequence of PI3K alpha (P42336 other isoform, or with tags, fused parts or gaps): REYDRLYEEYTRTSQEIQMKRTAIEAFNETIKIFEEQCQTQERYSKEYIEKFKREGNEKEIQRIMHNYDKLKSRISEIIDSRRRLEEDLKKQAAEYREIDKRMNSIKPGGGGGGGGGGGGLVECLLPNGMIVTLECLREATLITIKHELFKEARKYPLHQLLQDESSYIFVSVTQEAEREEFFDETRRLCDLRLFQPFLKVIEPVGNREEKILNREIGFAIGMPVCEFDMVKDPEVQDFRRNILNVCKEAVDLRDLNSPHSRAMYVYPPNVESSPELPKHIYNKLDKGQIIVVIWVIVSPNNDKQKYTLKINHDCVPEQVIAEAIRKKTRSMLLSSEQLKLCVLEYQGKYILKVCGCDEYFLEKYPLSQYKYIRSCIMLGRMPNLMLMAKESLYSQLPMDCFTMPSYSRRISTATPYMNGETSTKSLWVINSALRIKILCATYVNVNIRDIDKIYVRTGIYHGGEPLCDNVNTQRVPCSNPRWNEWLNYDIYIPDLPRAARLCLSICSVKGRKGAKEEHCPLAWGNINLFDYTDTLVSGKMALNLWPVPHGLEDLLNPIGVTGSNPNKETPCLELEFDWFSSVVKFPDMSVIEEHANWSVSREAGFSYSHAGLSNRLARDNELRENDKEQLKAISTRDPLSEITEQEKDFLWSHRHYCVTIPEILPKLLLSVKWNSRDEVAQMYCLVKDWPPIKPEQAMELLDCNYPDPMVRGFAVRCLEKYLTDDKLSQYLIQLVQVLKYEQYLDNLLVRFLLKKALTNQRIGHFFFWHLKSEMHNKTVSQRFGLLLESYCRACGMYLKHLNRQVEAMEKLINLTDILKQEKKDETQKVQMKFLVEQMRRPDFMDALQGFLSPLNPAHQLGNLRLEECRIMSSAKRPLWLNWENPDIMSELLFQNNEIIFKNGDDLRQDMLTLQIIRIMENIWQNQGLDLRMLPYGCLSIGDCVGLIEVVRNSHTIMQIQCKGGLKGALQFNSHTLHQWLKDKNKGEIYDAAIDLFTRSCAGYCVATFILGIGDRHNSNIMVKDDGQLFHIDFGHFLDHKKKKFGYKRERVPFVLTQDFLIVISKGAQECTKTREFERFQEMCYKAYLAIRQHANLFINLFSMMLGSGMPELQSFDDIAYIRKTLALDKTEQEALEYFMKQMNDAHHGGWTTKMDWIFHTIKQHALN
Sequence of PI3K delta (O00329 other isoform, or with tags, fused parts or gaps linker GGGGGG): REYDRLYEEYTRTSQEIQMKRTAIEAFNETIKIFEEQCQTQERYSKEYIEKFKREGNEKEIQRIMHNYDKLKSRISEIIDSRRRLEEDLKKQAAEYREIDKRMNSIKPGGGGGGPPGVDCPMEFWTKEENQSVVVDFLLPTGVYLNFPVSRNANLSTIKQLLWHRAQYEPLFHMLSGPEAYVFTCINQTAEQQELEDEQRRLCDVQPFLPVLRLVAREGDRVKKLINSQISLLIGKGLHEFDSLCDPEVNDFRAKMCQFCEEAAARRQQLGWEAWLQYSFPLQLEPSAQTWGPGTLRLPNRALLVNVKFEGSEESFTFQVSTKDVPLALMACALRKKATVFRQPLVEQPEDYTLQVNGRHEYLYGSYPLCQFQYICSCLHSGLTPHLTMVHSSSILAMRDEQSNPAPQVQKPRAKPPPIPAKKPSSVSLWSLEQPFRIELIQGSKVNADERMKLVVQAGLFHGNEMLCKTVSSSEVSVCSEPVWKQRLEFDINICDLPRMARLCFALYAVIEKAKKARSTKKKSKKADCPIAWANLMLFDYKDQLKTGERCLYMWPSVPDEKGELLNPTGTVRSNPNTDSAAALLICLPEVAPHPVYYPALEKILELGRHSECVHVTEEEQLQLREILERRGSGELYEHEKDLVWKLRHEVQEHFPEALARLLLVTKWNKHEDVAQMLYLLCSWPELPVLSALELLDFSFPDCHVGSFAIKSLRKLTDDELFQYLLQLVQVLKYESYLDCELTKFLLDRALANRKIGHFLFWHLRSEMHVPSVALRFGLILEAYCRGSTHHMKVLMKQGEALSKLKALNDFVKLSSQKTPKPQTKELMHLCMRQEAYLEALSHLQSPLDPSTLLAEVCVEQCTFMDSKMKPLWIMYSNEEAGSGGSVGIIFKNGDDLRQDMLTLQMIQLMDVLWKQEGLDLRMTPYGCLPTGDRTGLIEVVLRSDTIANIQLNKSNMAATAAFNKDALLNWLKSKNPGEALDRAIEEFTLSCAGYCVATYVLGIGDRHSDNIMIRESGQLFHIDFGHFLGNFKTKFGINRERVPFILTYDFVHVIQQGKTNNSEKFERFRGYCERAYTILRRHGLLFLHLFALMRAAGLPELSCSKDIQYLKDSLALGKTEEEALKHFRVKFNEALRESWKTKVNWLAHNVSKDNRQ

IC50 (PI3K alpha) [nM]	IC50 (PI3K delta) [nM]	SMILES
303	116	COc1ncc(N2CCOc3ccc(O[C@H]4CCN(C(=O)c5nnc(C)o5)C4)cc32)cc1C#N [Example C12, 2-Methoxy-5-{6-[(S)-1-(5-methyl-[1,3,4]oxadiazole-2-carbonyl)-pyrrolidin-3-yloxy]-2,3-dihydro-benzo[1,4]oxazin-4-yl}-nicotinonitrile]
913	13	Cc1cc(N2CCOc3ccc(O[C@H]4CCN(C(=O)C5CCS(=O)(=O)C5)C4)cc32)cnc1S(C)(=O)=O (some centres unmarked) [Example H2]
1100	103	COCCC(=O)N1CC[C@H](Oc2ccc3c(c2)N(c2cnc(S(C)(=O)=O)c(C)c2)CCO3)C1 [Example B37, 1-{(S)-3-[4-(6-Methanesulfonyl-5-methyl-pyridin-3-yl)-3,4-dihydro-2H-benzo[1,4]oxazin-6-yloxy]-pyrrolidin-1-yl}-3-methoxy-propan-1-one]
346	80	CCS(=O)(=O)N1CC[C@H](Oc2ccc3c(c2)N(c2cnc(S(C)(=O)=O)c(C)c2)CCO3)C1 [Example B84, 6-((S)-1-Ethanesulfonyl-pyrrolidin-3-yloxy)-4-(6-methanesulfonyl-5-methyl-pyridin-3-yl)-3,4-dihydro-2H-benzo[1,4]oxazine]
3000	28	CCC(=O)N1CC[C@H](Oc2ccc3c(c2)N(c2ccc(OC)nc2)CCO3)C1 [Example C4, 1-{(S)-3-[4-(6-Methoxy-pyridin-3-yl)-3,4-dihydro-2H-benzo[1,4]oxazin-6-yloxy]-pyrrolidin-1-yl}-propan-1-one]
133	9	COc1ncc(N2CCOc3ccc(O[C@H]4CCN(C(=O)c5cn(C)cn5)C4)cc32)cc1C [Example B89, {(S)-3-[4-(6-Methoxy-5-methyl-pyridin-3-yl)-3,4-dihydro-2H-benzo[1,4]oxazin-6-yloxy]-pyrrolidin-1-yl}-(1-methyl-1H-imidazol-4-yl)-methanone]
559	8	Cc1cc(N2CCOc3ccc(O[C@H]4CCN(C(=O)C5COCCO5)C4)cc32)cnc1S(C)(=O)=O (single isomer, unassigned) [Example H3]
1210	8	COc1ncc(N2CCOc3ccc(O[C@H]4CCN(C(=O)[C@H]5CC[C@H](O)CC5)C4)cc32)cc1F [Example B117, {(S)-3-[4-(5-Fluoro-6-methoxy-pyridin-3-yl)-3,4-dihydro-2H-benzo[1,4]oxazin-6-yloxy]-pyrrolidin-1-yl}-(4-hydroxy-cyclohexyl)-methanone]
104	14	CCC(=O)N1CC[C@H](Oc2ccc3c(c2)N(c2cnc(N)c(C(F)(F)F)c2)CCO3)C1 [Example A17, 1-{(S)-3-[4-(6-Amino-5-trifluoromethyl-pyridin-3-yl)-3,4-dihydro-2H-benzo[1,4]oxazin-6-yloxy]-pyrrolidin-1-yl}-propan-1-one]
610	< 9	Cc1cc(N2CCOc3ccc(O[C@H]4CCN(C(=O)C(C)C)C4)cc32)cnc1S(C)(=O)=O [Example B33, 1-{(S)-3-[4-(6-Methanesulfonyl-5-methyl-pyridin-3-yl)-3,4-dihydro-2H-benzo[1,4]oxazin-6-yloxy]-pyrrolidin-1-yl}-2-methyl-propan-1-one]
1220	243	COc1ncc(N2CCOc3ccc(O[C@@H]4CCN(C(=O)C5CCOCC5)C4)cc32)cc1C#N [Example C2, 2-Methoxy-5-{6-[(R)-1-(tetrahydro-pyran-4-carbonyl)-pyrrolidin-3-yloxy]-2,3-dihydro-benzo[1,4]oxazin-4-yl}-nicotinonitrile]
558	41	CC(C)S(=O)(=O)c1cncc(N2CCOc3ccc(O[C@H]4CCN(C(=O)C5CCS(=O)(=O)CC5)C4)cc32)c1 [Example B29, (1,1-Dioxo-hexahydro-1lambda*6*-thiopyran-4-yl)-((S)-3-{4-[5-(propane-2-sulfonyl)-pyridin-3-yl]-3,4-dihydro-2H-benzo[1,4]oxazin-6-yloxy}-pyrrolidin-1-yl)-methanone]
705	12	COc1ncc(N2CCOc3ccc(O[C@H]4CCN(C(=O)c5ccc(=O)n(C)c5)C4)cc32)cc1C#N [Example D17, 2-Methoxy-5-{6-[(S)-1-(1-methyl-6-oxo-1,6-dihydro-pyridine-3-carbonyl)-pyrrolidin-3-yloxy]-2,3-dihydro-benzo[1,4]oxazin-4-yl}-nicotinonitrile]
188	25	Cc1cc(N2CCOc3ccc(O[C@H]4CCN(C(=O)c5cn(C)cn5)C4)cc32)cnc1S(C)(=O)=O [Example B8, {(S)-3-[4-(6-Methanesulfonyl-5-methyl-pyridin-3-yl)-3,4-dihydro-2H-benzo[1,4]oxazin-6-yloxy]-pyrrolidin-1-yl}-(1-methyl-1H-imidazol-4-yl)-methanone]
241	46	COc1ncc(N2CCOc3ccc(O[C@H]4CCN(C(=O)c5cnco5)C4)cc32)cc1F [Example B103, {(S)-3-[4-(5-Fluoro-6-methoxy-pyridin-3-yl)-3,4-dihydro-2H-benzo[1,4]oxazin-6-yloxy]-pyrrolidin-1-yl}-oxazol-5-yl-methanone]
446	11	COc1cc(N2CCOc3ccc(O[C@H]4CCN(C(=O)[C@H]5CC[C@H](O)CC5)C4)cc32)cnc1OC [Example B66, {(S)-3-[4-(5,6-Dimethoxy-pyridin-3-yl)-3,4-dihydro-2H-benzo[1,4]oxazin-6-yloxy]-pyrrolidin-1-yl}-(4-hydroxy-cyclohexyl)-methanone]
895	11	CCC(=O)N1CC[C@H](Oc2ccc3c(c2)N(c2cnc(OC)c(S(=O)(=O)N4CCN(C)CC4)c2)CCO3)C1 [Example A18, 1-((S)-3-{4-[6-Methoxy-5-(4-methyl-piperazine-1-sulfonyl)-pyridin-3-yl]-3,4-dihydro-2H-benzo[1,4]oxazin-6-yloxy}-pyrrolidin-1-yl)-propan-1-one]
202	20	COc1ncc(N2CCOc3ccc(O[C@H]4CCN(C(=O)c5cnn6cccnc56)C4)cc32)cc1C#N [Example C22, 2-Methoxy-5-{6-[(S)-1-(pyrazolo[1,5-a]pyrimidine-3-carbonyl)-pyrrolidin-3-yloxy]-2,3-dihydro-benzo[1,4]oxazin-4-yl}-nicotinonitrile]
353	12	COc1ncc(N2CCOc3ccc(O[C@H]4CCN(C(=O)c5cc[nH]c(=O)c5)C4)cc32)cc1C [Example B91, 4-{(S)-3-[4-(6-Methoxy-5-methyl-pyridin-3-yl)-3,4-dihydro-2H-benzo[1,4]oxazin-6-yloxy]-pyrrolidine-1-carbonyl}-1H-pyridin-2-one]
494	15	COc1ncc(N2CCOc3ccc(O[C@H]4CCN(C(=O)CC(C)(C)C)C4)cc32)cc1C#N [Example D9, 5-{6-[(S)-1-(3,3-Dimethyl-butyryl)-pyrrolidin-3-yloxy]-2,3-dihydro-benzo[1,4]oxazin-4-yl}-2-methoxy-nicotinonitrile]
346	8	COc1ncc(N2CCOc3ccc(O[C@H]4CCN(C(=O)c5ccc(=O)[nH]c5)C4)cc32)cc1C [Example B92, 5-{(S)-3-[4-(6-Methoxy-5-methyl-pyridin-3-yl)-3,4-dihydro-2H-benzo[1,4]oxazin-6-yloxy]-pyrrolidine-1-carbonyl}-1H-pyridin-2-one]
> 9100	118	CCC(=O)N1CC[C@H](Oc2ccc3c(c2)N(c2ccc(S(=O)(=O)CC)nc2)CCO3)C1 [Example B96, 1-{(S)-3-[4-(6-Ethanesulfonyl-pyridin-3-yl)-3,4-dihydro-2H-benzo[1,4]oxazin-6-yloxy]-pyrrolidin-1-yl}-propan-1-one]
704	24	COc1ncc(N2CCOc3cnc(O[C@H]4CCN(C(=O)C5CCS(=O)(=O)CC5)C4)cc32)cc1C#N [Example F13, 5-{7-[(S)-1-(1,1-Dioxo-hexahydro-1lambda*6*-thiopyran-4-carbonyl)-pyrrolidin-3-yloxy]-2,3-dihydro-pyrido[3,4-b][1,4]oxazin-1-yl}-2-methoxy-nicotinonitrile]
247	17	COc1ncc(N2CCOc3ccc(O[C@H]4CCN(C(=O)CCS(C)(=O)=O)C4)cc32)cc1Cl [Example B106, 1-{(S)-3-[4-(5-Chloro-6-methoxy-pyridin-3-yl)-3,4-dihydro-2H-benzo[1,4]oxazin-6-yloxy]-pyrrolidin-1-yl}-3-methanesulfonyl-propan-1-one]
658	32	COc1ncc(N2CCOc3ccc(O[C@H]4CCN(C(=O)C5CCC(=O)N5)C4)cc32)cc1C#N (stereo partly drawn) [Example C23, 2-Methoxy-5-{6-[(S)-1-(5-oxo-pyrrolidine-2-carbonyl)-pyrrolidin-3-yloxy]-2,3-dihydro-benzo[1,4]oxazin-4-yl}-nicotinonitrile]
229	13	Cc1cc(N2CCOc3cnc(O[C@H]4CCN(C(=O)c5cn(C)cn5)C4)cc32)cnc1OC(F)F [Example E10, {(S)-3-[1-(6-Difluoromethoxy-5-methyl-pyridin-3-yl)-2,3-dihydro-1H-pyrido[3,4-b][1,4]oxazin-7-yloxy]-pyrrolidin-1-yl}-(1-methyl-1H-imidazol-4-yl)-methanone]
522	5	COc1ncc(N2CCOc3ccc(O[C@H]4CCN(C(=O)C5CCCCC5)C4)cc32)cc1C#N [Example D13, 5-[6-((S)-1-Cyclohexanecarbonyl-pyrrolidin-3-yloxy)-2,3-dihydro-benzo[1,4]oxazin-4-yl]-2-methoxy-nicotinonitrile]
109	7	COc1cc(N2CCOc3ccc(O[C@H]4CCN(C(=O)c5cn(C)cn5)C4)cc32)cnc1OC [Example B48, {(S)-3-[4-(5,6-Dimethoxy-pyridin-3-yl)-3,4-dihydro-2H-benzo[1,4]oxazin-6-yloxy]-pyrrolidin-1-yl}-(1-methyl-1H-imidazol-4-yl)-methanone]
